Reference: patent US20230338297A1, “Encapsulated Agents that Bind to MCT-1” (THE JOHNS HOPKINS UNIVERSITY, priority 2020, published 2023)

Tests used:
[1] = target: T1, MCT-1 (Homo sapiens, UniProt P53985); assay type: cell-based
T1 construct: endogenous in cells
T1 sequence (P53985 1-500): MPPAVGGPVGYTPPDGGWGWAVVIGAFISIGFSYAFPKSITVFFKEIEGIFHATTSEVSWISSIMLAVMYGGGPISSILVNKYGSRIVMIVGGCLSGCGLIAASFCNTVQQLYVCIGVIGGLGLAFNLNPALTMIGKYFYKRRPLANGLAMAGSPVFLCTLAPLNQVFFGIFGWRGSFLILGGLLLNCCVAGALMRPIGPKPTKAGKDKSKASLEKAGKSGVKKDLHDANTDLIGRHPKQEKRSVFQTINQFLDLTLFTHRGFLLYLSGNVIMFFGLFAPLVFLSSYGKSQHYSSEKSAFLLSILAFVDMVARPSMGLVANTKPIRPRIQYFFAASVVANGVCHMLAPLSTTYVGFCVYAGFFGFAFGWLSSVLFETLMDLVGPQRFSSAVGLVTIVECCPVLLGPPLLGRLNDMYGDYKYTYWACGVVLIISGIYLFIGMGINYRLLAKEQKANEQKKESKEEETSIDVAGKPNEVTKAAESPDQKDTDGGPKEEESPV
T1 sequence (P35613 140-385 partner limits assumed): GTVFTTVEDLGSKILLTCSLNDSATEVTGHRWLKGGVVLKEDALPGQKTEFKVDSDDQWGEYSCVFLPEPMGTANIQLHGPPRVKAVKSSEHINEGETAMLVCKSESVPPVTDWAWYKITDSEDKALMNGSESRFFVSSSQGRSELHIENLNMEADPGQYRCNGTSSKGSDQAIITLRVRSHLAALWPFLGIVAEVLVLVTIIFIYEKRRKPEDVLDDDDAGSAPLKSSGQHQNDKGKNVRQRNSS
Source text: To gain insight into this lack of sensitivity, the expression levels of three cell surface channels, GLUT-1 (Yu, M. et al. The prognostic value of GLUT1 in cancers: a systematic review and meta-analysis. Oncotarget 8, 43356-43367, doi:10.18632/oncotarget.17445 (2017)), MCT-1 and MCT-4 (Hong, C. S. et al. MCT1 Modulates Cancer Cell Pyruvate Export and Growth of Tumors that Co-express MCT1 and MCT4. Cell Reports 14, 1590-1601, doi:10.1016/j.celrep.2016.01.057 (2016)) were compared in all 7 pancreatic cancer cell lines using RNA expression atlas (FIG. 4A). While neither GLUT1 (primarily responsible for glucose uptake and therefore, the FDG-PET positive phenotype) nor MCT-4 expression levels of CFPAC-1 were lower than other cell lines in the panel, expression levels of MCT-1 in CFPAC-1 (22 TPM) was nearly three-fold lower than the next lowest expressor (BxPC-3, 64 TPM) in the cell line panel (FIG. 4B). […]

[2] = system: DLD-1 parental cells; assay: effect of MCT-1 loss on sensitivity: DLD-1 parental cells; assay type: cell-based, human; settings: 0-200 uM
Experimental: (§1) The Alt-R CRISPR system (Integrated DNA Technologies, IDT) was used to delete SLC16A1, the gene encoding for the MCT-1 protein, in the DLD-1 and MiaPaCa-2 cell lines. The gRNA sequence was designed using CHOPCHOP v.3 12. Briefly, Alt-R CRISPR Cas9 crRNAs ([…], IDT; SEQ ID NO:1) and Alt-R CRISPR-Cas9 tracrRNA (1072532, IDT) were re-suspended at 100 μM with Nuclease-Free Duplex Buffer (IDT). The crRNAs and tracrRNA were mixed at a 1:1 molar ratio and denatured for 5 min at 95° C., followed by slow cooling to room temperature to duplex prior to mixing with Cas9 Nuclease (1081059, IDT) at a 1.2:1 molar ratio for 15 min. Forty pmoles of the Cas9 ribonucleoprotein (RNP) containing tracrRNA/MCT-1 crRNA duplex were mixed with 2×10^5 DLD-1 cells in 20 μL of OptiMEM (31985088, ThermoFisher Scientific). This mixture was loaded into a 0.1 cm cuvette (1652089, Bio Rad) and electroporated at 120 V for 16 ms using an ECM 2001 (Harvard Apparatus). Cells were immediately transferred to complete growth medium and cultured for one week. Upon reaching confluence, polyclonal pools were plated at a density of 0.5 to 2 cells per well in 96-well plates and cultured for 3 weeks. Single colonies were transferred into 2 replica 96-well plates. […]

[3] = system: MiaPaCa-2 cells; assay: rapid induction of cell death, timed exposure and washout of MiaPaCa-2 cells; assay type: cell-based, human
Experimental: Representative pancreatic cancer cells MiaPaCa-2 (MCT-1: 163 TPM, Expression Atlas) were plated in a 96 well plate at 12,000 cells/well. These cells were then exposed to a 2-fold dilution series of sCD-3BP and free 3BP for different amounts of time (exposure time: 15 minutes, 30 minutes, 1 hour, 2 hours, 4 hours and 8 hours) and their outcome recorded by Incucyte® Live-Cell Analysis Systems, over 36 hours. After the desired timed exposure, cells were washed with PBS and fresh media was added to ensure no more drug persisted in the respective wells. […] The IC50 of both agents was calculated to be 84-90 uM when cells were exposed to the drug for only 15 minutes. […] While treated cells looked initially healthy following drug washout, cell death became discernable 24 hours post exposure.

[4] = system: DLD-1 MCT-1(-) cells; assay: effect of MCT-1 loss on sensitivity: DLD-1 MCT-1(-) knock-out cells; assay type: cell-based, human; settings: even at 200 uM
Experimental: as §1

[5] = stability of CD-3BP complexes and free 3BP in sera, residual 3BP by cell toxicity assay (HCT-116); assay type: in vitro ADME, human; settings: incubated with sera at 37° C. for up to 8 hours
Source text: However, how microencapsulation in CD alters the solubility and stability of 3BP and whether chemical modifications of CDs can alter physicochemical characteristics of the drug remains unclear. To address these questions and clarify the biological effect of microencapsulation, an assay was designed to estimate the stability of various CD-3BP complexes when compared to free 3BP in human sera.
Two different types of complexes, the previously used sCD-3BP (Chapiro, J. et al., Clinical cancer research: An official journal of the American Association for Cancer Research 20, 6406-6417, doi:10.1158/1078-0432.ccr-14-1271 (2014)) and newly generated HPCD-3BP were compared side-by-side. […] Aliquots were collected at various time points and assessed for residual 3BP by a cell toxicity assay. […]
Free 3BP, sCD-3BP and HPCD-3BP were incubated at various concentrations (12.5 μM, 25 μM, 50 μM, 100 μM and 200 μM) with 90 μL of mouse sera at 37° C. for up to 8 hours. […] Un-degraded biologically active 3BP at each time was then assessed by a cell toxicity assay. […] Cell death was measured by imaging cells after 72 hours using the IncuCyte® Live Cell-Analysis System (Essen Bioscience) and using the CellTox™ Green Cytotoxicity Assay (Promega), following the manufacturer's recommendation. […]

Row | Structure (SMILES) | rescue of cells from CD-3BP mediated cytotoxicity [1] | cell death [2] | potency at killing MiaPaCa-2 cells, sCD-3BP compared with 3BP [3] | loss of viability [4] | stability / protection against degradation in sera ([5]; listed as Free 3BP) | stability / protection against degradation in sera ([5]; listed as free 3BP)
1 | Cc1[nH]nc(C(F)(F)F)c1Cc1sc2c(c1C(=O)N1C[C@](C)(O)CO1)c(=O)n(C)c(=O)n2C(C)C [AZD3965] | clear dose dependent rescue | – | – | – | – | –
2 | O=C(O)C(=O)CBr [3BP, 3-bromopyruvate] | – | dramatic cell death | equally potent | no loss of viability | rapidly degraded | rapid degradation
